Experiments:
Trichophyton rubrum = assay: antifungal activity, agar dilution method; type: cell-based, Trichophyton rubrum (ATCC No. 10218 and 14001)
Description: (§1) Various compounds of this invention display antifungal and anti-yeast activity.
(§2) In Table IX below are listed the antifungal activity of a number of compounds encompassed in the present invention. These were determined by the agar dilution method as described in Chapters 2 and 3 of Methods in Microbiology, Vol. 7B, edited by J. R. Norris and D. W. Ribbons, Academic Press, New York, 1972.

Trichophyton ajelloi = assay: antifungal activity, agar dilution method; type: cell-based
Description: as §1, §2

[1] = system: humeral or antibody response; assay: hemolysin test in mice; type: in vivo, mouse; settings: s.c., dose to reduce antibody activity by 50% versus control
[2] = system: Trichophyton mentagrophytes; assay: antifungal activity, agar dilution method; type: cell-based, Trichophyton mentagrophytes (ATCC No. 8757 and 9129)
Description: as §1, §2

[3] = system: cell-mediated immune response to the antigen, Mycobacterium tuberculosis H37Ra; assay: delayed hypersensitivity test; type: in vivo, mouse; settings: mice, s.c.; dose to reduce edema of cell-mediated immune response by 60% versus control
Description: The immunosuppressant activities of the compounds of this invention were determined via the hemolysin test in mice and by the delayed hypersensitivity test. The hemolysin test used is that described in Methods in Immunology, edited by D. H. Campbell et al, W. A. Benjamin, New York 1963 pages 172-175, and measures humeral or antibody response. The delayed hypersensitivity test measures the effect of a test compound on the ability of a subject mouse to mount a cell-mediated immune response to the antigen, Mycobacterium tuberculosis H37Ra. The mouse is sensitized to the antigen by subcutaneous administration in the base of the tail. The development of the delayed hypersensitivity response may be measured at any time beginning six days after sensitization but is usually done on the ninth day as follows: The right hind paw is injected with purified protein derivative (tuberculin) while the left hind paw (control) receives physiological saline. Both paw volumes are measured after twenty-four hours and significant increase in the volume of the right hand paw is taken as a measure of an effective delayed hypersensitivity response. All compounds were administered by the subcutaneous route.
The D.H.S. (ED60) mg./kg. s.c. value appearing in column 3 is an expression of the effectiveness of the drug in reducing the edema that accompanies the cell-mediated immune response. […]

rat paw edema = rat paw edema assay, oral dosing; type: in vivo; settings: four hours after drug
Description: The anti-inflammatory activity of representative compounds of this invention was determined by the rat paw edema assay both by local administration (Table XI below) and by oral dosing (Table XII below). For the oral dosing, the procedure of C. A. Winter, E. A. Risley and G. W. Nuss, Proc. Soc. Exp. Biol. Med. 111, 544 (1962) was employed with measurement taken four hours after the drug was administered. The local administration tests were carried out similarly except the irritant (carrageenan) and the test compound were injected simultaneously at time zero. Tables XI and XII report the anti-inflammatory activity of the compounds tested as % difference in the edema or swelling as compared with the control. These Tables also give the response in many instances of more than one dose level of the same drug.

SMILES: O=[N+]([O-])c1ccc(Nc2nc3ccccc3n3ccnc23)cc1 [Compound 189]
- Parts Per Million Inhibitions of T. rubrum (Trichophyton rubrum): 100 Parts Per Million
- Parts Per Million Inhibitions of T. ajelloi (Trichophyton ajelloi): 100 Parts Per Million

SMILES: FC(F)(F)c1cccc(-c2nc3ccccc3n3ccnc23)c1 [Compound 136]
- HL(ED50) [1]: 2.7 mg/kg
- Parts Per Million Inhibitions of T. mentagrophytes [2]: 100 Parts Per Million
- D.H.S. (ED60) [3]: > 50 mg/kg
- %Difference from Control (rat paw edema; 100 mg/kg): -9%
- %Difference from Control (rat paw edema; 400 mg/kg): -25%

From patent publication US4198508A, “Process for preparing 4-substituted imidazo[1,2-a]quinoxalines” (Westwood Pharmaceuticals Inc., priority 1977, dated 1980)
